The source made the active and inactive calls.
Columns and labels:
[1] = Antioxidant activity assessed as H2O2 scavenging activity incubated for 10 mins by absorbance based assay; type: functional; conditions: dose 25-100 µg/ml
Rattus norvegicus [2] = test: Antidiabetic activity in high fat diet/STZ induced diabetic Wistar rat model assessed as reduction in VLDL level at 3 to 30 mg/kg, IG pretreated with STZ for 21 days followed by compound treatment once daily for 21 days by spectrophotometric analysis; type: functional, organism-based; conditions: dose 3-30 mg/kg, time 21.0 day
[3] = Acute toxicity in po dosed rat measured after 30 mins to 4 hrs; type: organism-based; conditions: in vivo, time 0.5-4 hrs
Rattus norvegicus [4] = test: Antioxidant activity in high fat diet/STZ induced diabetic Wistar rat model assessed as recovery of pancreatic epithelial cell damage and acini architecture at 10 mg/kg, IG pretreated with STZ for 21 days followed by compound treatment once daily for 21 days by H and E staining based microscopic analysis; type: functional, organism-based; conditions: time 21.0 day
Rattus norvegicus [5] = test: Antidiabetic activity in high fat diet/STZ induced diabetic Wistar rat model assessed as increase in body weight at 3 to 30 mg/kg, IG pretreated with STZ for 21 days followed by compound treatment once daily for 21 days; type: functional, organism-based; conditions: dose 3-30 mg/kg, time 21.0 day
[6] = Antioxidant activity assessed as DPPH scavenging activity at 91.26 ug/ml incubated for 30 mins by absorbance based assay; type: functional; conditions: dose 91.26 µg/ml
[7] = Acute toxicity in rat assessed as change in animal skin at 300 to 1000 mg/kg, po measured after 6 hrs; type: organism-based; conditions: in vivo, dose 300-1000 mg/kg
Rattus norvegicus [8] = test: Antioxidant activity in high fat diet/STZ induced diabetic Wistar rat model assessed as healing of hepatocyte nucleus at 3 mg/kg, IG pretreated with STZ for 21 days followed by compound treatment once daily for 21 days by H and E staining based microscopic analysis; type: functional, organism-based; conditions: time 21.0 day
[9] = Acute toxicity in rat assessed as change in salivation at 300 to 1000 mg/kg, po measured after 6 hrs; type: organism-based; conditions: in vivo, dose 300-1000 mg/kg
Rattus norvegicus [10] = test: Antidiabetic activity in high fat diet/STZ induced diabetic Wistar rat model assessed as increase in fasting serum insulin at 3 to 30 mg/kg, IG pretreated with STZ for 21 days followed by compound treatment once daily for 21 days by chemiluminescence immunoassay; type: functional, organism-based; conditions: dose 3-30 mg/kg, time 21.0 day
[11] = Acute toxicity in rat assessed as change in mucosal membranes at 300 to 1000 mg/kg, po measured after 6 hrs; type: organism-based; conditions: in vivo, dose 300-1000 mg/kg
Rattus norvegicus [12] = test: Antioxidant activity in high fat diet/STZ induced diabetic Wistar rat model assessed as reduction in lymphocyte level in renal stroma at 3 to 30 mg/kg, IG pretreated with STZ for 21 days followed by compound treatment once daily for 21 days by H and E staining based microscopic analysis; type: functional, organism-based; conditions: dose 3-30 mg/kg, time 21.0 day
[13] = Acute toxicity in rat assessed as diarrhoea at 2000 mg/kg, po measured after 30 mins to 4 hrs; type: organism-based; conditions: in vivo, time 0.5-4 hrs
Rattus norvegicus [14] = test: Antioxidant activity in IG dosed high fat diet/STZ induced diabetic Wistar rat model assessed as reversal of CAT reduction in kidney pretreated with STZ for 21 days followed by compound treatment once daily for 21 days by spectrophotometric analysis; type: functional, organism-based; conditions: dose 3-30 mg/kg, time 21.0 day
Rattus norvegicus [15] = test: Antioxidant activity in high fat diet/STZ induced diabetic Wistar rat model assessed as hepatocyte cytoplasm recovery at 30 mg/kg, IG pretreated with STZ for 21 days followed by compound treatment once daily for 21 days by H and E staining based microscopic analysis; type: functional, organism-based; conditions: time 21.0 day
Rattus norvegicus [16] = test: Antioxidant activity in high fat diet/STZ induced diabetic Wistar rat model assessed as reduction in glomeruli infiltration in stroma at 3 to 30 mg/kg, IG pretreated with STZ for 21 days followed by compound treatment once daily for 21 days by H and E staining based microscopic analysis; type: functional, organism-based; conditions: dose 3-30 mg/kg, time 21.0 day
Rattus norvegicus [17] = test: Antioxidant activity in high fat diet/STZ induced diabetic Wistar rat model assessed as healing of hepatocyte cytoplasm at 3 to 10 mg/kg, IG pretreated with STZ for 21 days followed by compound treatment once daily for 21 days by H and E staining based microscopic analysis; type: functional, organism-based; conditions: dose 3-10 mg/kg, time 21.0 day
Rattus norvegicus [18] = test: Antioxidant activity in high fat diet/STZ induced diabetic Wistar rat model assessed as appearance of sufficient cloudy swelling of columnar cells in tubules at 10 mg/kg, IG pretreated with STZ for 21 days followed by compound treatment once daily for 21 days by H and E staining based microscopic analysis; type: functional, organism-based; conditions: time 21.0 day
[19] = Acute toxicity in rat assessed as sleep and sluggish effect at 300 to 1000 mg/kg, po measured after 6 hrs; type: organism-based; conditions: in vivo, dose 300-1000 mg/kg
Rattus norvegicus [20] = test: Antioxidant activity in high fat diet/STZ induced diabetic Wistar rat model assessed as appearance of typical columnar cells in tubules at 30 mg/kg, IG pretreated with STZ for 21 days followed by compound treatment once daily for 21 days by H and E staining based microscopic analysis; type: functional, organism-based; conditions: time 21.0 day
Rattus norvegicus [21] = test: Antioxidant activity in IG dosed high fat diet/STZ induced diabetic Wistar rat model assessed as reversal of SOD reduction in liver pretreated with STZ for 21 days followed by compound treatment once daily for 21 days by spectrophotometric analysis; type: functional, organism-based; conditions: dose 3-30 mg/kg, time 21.0 day
Rattus norvegicus [22] = test: Antioxidant activity in high fat diet/STZ induced diabetic Wistar rat model assessed as repair of pancreatic epithelial cells with normal islets at 30 mg/kg, IG pretreated with STZ for 21 days followed by compound treatment once daily for 21 days by H and E staining based microscopic analysis; type: functional, organism-based; conditions: time 21.0 day
[23] = Antioxidant activity assessed as H2O2 scavenging activity at 73.43 ug/ml incubated for 10 mins by absorbance based assay; type: functional; conditions: dose 73.43 µg/ml
Rattus norvegicus [24] = test: Antioxidant activity in high fat diet/STZ induced diabetic Wistar rat model assessed as repair of pancreatic epithelial cells with reduced fibrosis at 30 mg/kg, IG pretreated with STZ for 21 days followed by compound treatment once daily for 21 days by H and E staining based microscopic analysis; type: functional, organism-based; conditions: time 21.0 day
Rattus norvegicus [25] = test: Antidiabetic activity in high fat diet/STZ induced diabetic Wistar rat model assessed as reduction in total cholesterol level at 3 to 30 mg/kg, IG pretreated with STZ for 21 days followed by compound treatment once daily for 21 days by spectrophotometric analysis; type: functional, organism-based; conditions: dose 3-30 mg/kg, time 21.0 day
Rattus norvegicus [26] = test: Antioxidant activity in high fat diet/STZ induced diabetic Wistar rat model assessed as reduction in mesangial cellularity and matrix at 10 to 30 mg/kg, IG pretreated with STZ for 21 days followed by compound treatment once daily for 21 days by H and E staining based microscopic analysis; type: functional, organism-based; conditions: dose 10-30 mg/kg, time 21.0 day
Rattus norvegicus [27] = test: Antioxidant activity in high fat diet/STZ induced diabetic Wistar rat model assessed as healing of hepatocyte central veins at 3 to 10 mg/kg, IG pretreated with STZ for 21 days followed by compound treatment once daily for 21 days by H and E staining based microscopic analysis; type: functional, organism-based; conditions: dose 3-10 mg/kg, time 21.0 day
Rattus norvegicus [28] = test: Antioxidant activity in high fat diet/STZ induced diabetic Wistar rat model assessed as reduction in mesangial cellularity and matrix at 3 mg/kg, IG pretreated with STZ for 21 days followed by compound treatment once daily for 21 days by H and E staining based microscopic analysis; type: functional, organism-based; conditions: time 21.0 day
[29] = Acute toxicity in rat assessed as behavioural alterations at 300 to 1000 mg/kg, po measured after 6 hrs; type: organism-based; conditions: in vivo, dose 300-1000 mg/kg
Rattus norvegicus [30] = test: Antioxidant activity in high fat diet/STZ induced diabetic Wistar rat model assessed as reduction in hazy swelling of columnar cells in tubules at 3 mg/kg, IG pretreated with STZ for 21 days followed by compound treatment once daily for 21 days by H and E staining based microscopic analysis; type: functional, organism-based; conditions: time 21.0 day
[31] = Acute toxicity in rat assessed as animal survival at 2000 mg/kg, po measured after 30 mins to 4 hrs; type: organism-based; conditions: in vivo, time 0.5-4 hrs

Nc1nc(NC2=NC(c3ccccc3)=CC(c3cccc([N+](=O)[O-])c3)O2)nc(N2CCOCC2)n1 (stereo unspecified)
2000 mg/kg: LD50 [3]
inactive: Activity (Rattus norvegicus [28]) | Activity (Rattus norvegicus [30])
Non-Toxic: Activity [7] | Activity [9] | Activity [11] | Activity [13] | Activity [19] | Activity [29] | Activity [31]
active: Activity [1] Dose-Dependent Effect | Activity (Rattus norvegicus [2]) | Activity (Rattus norvegicus [4]) | Activity (Rattus norvegicus [5]) | Activity [6] | Activity (Rattus norvegicus [8]) | Activity (Rattus norvegicus [10]) | Activity (Rattus norvegicus [12]) | Activity (Rattus norvegicus [14]) Dose-Dependent Effect | Activity (Rattus norvegicus [15]) | Activity (Rattus norvegicus [16]) | Activity (Rattus norvegicus [17]) | Activity (Rattus norvegicus [18]) | Activity (Rattus norvegicus [20]) | Activity (Rattus norvegicus [21]) Dose-Dependent Effect | Activity (Rattus norvegicus [22]) | Activity [23] | Activity (Rattus norvegicus [24]) | Activity (Rattus norvegicus [25]) | Activity (Rattus norvegicus [26]) | Activity (Rattus norvegicus [27])

— ChEMBL document CHEMBL5329166, “Discovery of imeglimin-inspired novel 1,3,5-triazine derivatives as antidiabetic agents in streptozotocin-induced diabetes in Wistar rats via inhibition of DPP-4” (RSC Med Chem, 2023)
